# Test results from PubChem BioAssay (NCI).
#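 Following 48 hours of exposure in 96-well plates, responses at five concentrations were used to interpolate endpoints linearly. At the GI50, growth is halved. The concentration for full growth arrest is given as TGI.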
# Legend:
# Assay in all cases: DTP human tumour cell line panel, 48 h
# HOP-92 NSCLC = tested on: HOP-92 NSCLC
# SK-MEL-2 melanoma = tested on: SK-MEL-2 melanoma
# MDA-MB-435 = tested on: MDA-MB-435
# DU-145 prostate = tested on: DU-145 prostate
# SNB-19 CNS = tested on: SNB-19 CNS
# LOX IMVI melanoma = tested on: LOX IMVI melanoma
# UO-31 renal = tested on: UO-31 renal
# M14 melanoma = tested on: M14 melanoma
# SF-268 CNS = tested on: SF-268 CNS
# K-562 leukemia = tested on: K-562 leukemia
# BT-549 breast = tested on: BT-549 breast
# HS 578T breast = tested on: HS 578T breast
# OVCAR-8 ovarian = tested on: OVCAR-8 ovarian
# EKVX NSCLC = tested on: EKVX NSCLC
# CAKI-1 renal = tested on: CAKI-1 renal
# UACC-62 melanoma = tested on: UACC-62 melanoma
# NCI-H23 lung = tested on: NCI-H23 lung
# HCC-2998 colon = tested on: HCC-2998 colon
# IGROV1 ovarian = tested on: IGROV1 ovarian
# RPMI-8226 leukemia = tested on: RPMI-8226 leukemia
# SK-MEL-5 melanoma = tested on: SK-MEL-5 melanoma
# SF-539 CNS = tested on: SF-539 CNS
# SNB-75 CNS = tested on: SNB-75 CNS
# A498 renal = tested on: A498 renal
# ACHN renal = tested on: ACHN renal
# SK-MEL-28 melanoma = tested on: SK-MEL-28 melanoma
# NCI-H522 lung = tested on: NCI-H522 lung
# NCI/ADR-RES ovarian = tested on: NCI/ADR-RES ovarian
# MCF7 breast = tested on: MCF7 breast
smiles,measurement,setting,value
O=S(=O)(O)c1ccc2cc3nn(-c4ccc(/C=C/c5ccc(-n6nc7cc8ccc(S(=O)(=O)O)cc8cc7n6)cc5S(=O)(=O)O)c(S(=O)(=O)O)c4)nc3cc2c1,GI50,HOP-92 NSCLC,88.7 µM
same,TGI,HOP-92 NSCLC,> 100 µM
same,GI50,SK-MEL-2 melanoma,> 100 µM
same,TGI,SK-MEL-2 melanoma,> 100 µM
same,GI50,MDA-MB-435,> 100 µM
same,TGI,MDA-MB-435,> 100 µM
same,GI50,DU-145 prostate,> 100 µM
same,TGI,DU-145 prostate,> 100 µM
same,GI50,SNB-19 CNS,> 100 µM
same,TGI,SNB-19 CNS,> 100 µM
same,GI50,LOX IMVI melanoma,16.3 µM
same,TGI,LOX IMVI melanoma,> 100 µM
same,GI50,UO-31 renal,26.1 µM
same,TGI,UO-31 renal,> 100 µM
same,GI50,M14 melanoma,44.5 µM
same,TGI,M14 melanoma,> 100 µM
same,GI50,SF-268 CNS,> 100 µM
same,TGI,SF-268 CNS,> 100 µM
same,GI50,K-562 leukemia,61 µM
same,TGI,K-562 leukemia,> 100 µM
same,GI50,BT-549 breast,> 100 µM
same,TGI,BT-549 breast,> 100 µM
same,GI50,HS 578T breast,> 100 µM
same,TGI,HS 578T breast,> 100 µM
same,GI50,OVCAR-8 ovarian,> 100 µM
same,TGI,OVCAR-8 ovarian,> 100 µM
same,GI50,EKVX NSCLC,95.2 µM
same,TGI,EKVX NSCLC,> 100 µM
same,GI50,CAKI-1 renal,> 100 µM
same,TGI,CAKI-1 renal,> 100 µM
same,GI50,UACC-62 melanoma,34.1 µM
same,TGI,UACC-62 melanoma,> 100 µM
same,GI50,NCI-H23 lung,> 100 µM
same,TGI,NCI-H23 lung,> 100 µM
same,GI50,HCC-2998 colon,73.8 µM
same,TGI,HCC-2998 colon,> 100 µM
same,GI50,IGROV1 ovarian,27 µM
same,TGI,IGROV1 ovarian,> 100 µM
same,GI50,RPMI-8226 leukemia,> 100 µM
same,TGI,RPMI-8226 leukemia,> 100 µM
same,GI50,SK-MEL-5 melanoma,94.7 µM
same,TGI,SK-MEL-5 melanoma,> 100 µM
same,GI50,SF-539 CNS,> 100 µM
same,TGI,SF-539 CNS,> 100 µM
same,GI50,SNB-75 CNS,> 100 µM
same,TGI,SNB-75 CNS,> 100 µM
same,GI50,A498 renal,> 100 µM
same,TGI,A498 renal,> 100 µM
same,GI50,ACHN renal,81.6 µM
same,TGI,ACHN renal,> 100 µM
same,GI50,SK-MEL-28 melanoma,> 100 µM
same,TGI,SK-MEL-28 melanoma,> 100 µM
same,GI50,NCI-H522 lung,78.4 µM
same,TGI,NCI-H522 lung,> 100 µM
same,GI50,NCI/ADR-RES ovarian,> 100 µM
same,TGI,NCI/ADR-RES ovarian,> 100 µM
same,GI50,MCF7 breast,> 100 µM
same,TGI,MCF7 breast,> 100 µM
